The source of these data is ChEMBL document CHEMBL1201862, “PubChem BioAssay data set” (2004).

Some test systems named below: HCT-15; A549; U-251; SNB-19; HT-29; OVCAR-5; HOP-62; 786-0; MOLT-4; OVCAR-3; UACC-257; UACC-62; SF-295; OVCAR-4; SK-MEL-28; MCF7; HL-60; IGROV-1; SN12C; SR.
What all share (assay): NCI anticancer screen, dose series, 48 h

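Five compound concentrations were applied to cells in 96-well plates for 48 hours; endpoints were derived by simple linear interpolation of the resulting dose-response curve. GI50 = concentration required for 50% inhibition of growth.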 Activity calls are given as the source filed them. Cut-off read from the data, not from the text of the source: active = GI50 up to about 1.1 µM and inactive = higher.

In the case of `Cc1cc(N(CCC#N)S(=O)(=O)c2ccccc2)ccc1/C=N/c1ccc(C(=O)O)cc1`, the GI50 with HCT-15 was 7.53 µM; with A549, 31.6 µM (inactive); with U-251 it was 21.3 µM (inactive); in the assay on SNB-19, 29.6 µM (inactive); in the assay with HT-29, 15.7 µM (inactive); in the assay with OVCAR-5, 20.3 µM (inactive). The GI50 with HOP-62 was 31 µM (inactive); in the assay with 786-0, 5.45 µM (inactive); in the assay with MOLT-4 it was 6.98 µM (inactive); with OVCAR-3, 10.1 µM (inactive); in the assay on UACC-257, 16.9 µM (inactive); in the assay on UACC-62 it was 17.4 µM (inactive). Also, the GI50 is 29.1 µM (inactive) in the assay with SF-295; 5.62 µM (inactive) in the assay on OVCAR-4; 15.3 µM (inactive) with SK-MEL-28; > 100 µM (inactive) in the assay with MCF7; 5.21 µM (inactive) in the assay with HL-60; 30 µM (inactive) in the assay on IGROV-1. In the assay with SN12C, the GI50 is 6.21 µM (inactive).

On to `CCOC(=O)c1cc2c([N+](=O)[O-])c(N)ccc2s1`, for which the GI50 in the assay with HCT-15 was greater than 100 µM; in the assay with A549, > 100 µM (inactive); in the assay with U-251 it was > 100 µM (inactive); with SNB-19 it was > 100 µM (inactive); in the assay with HT-29, > 100 µM (inactive); in the assay with OVCAR-5, > 100 µM (inactive). In addition, the GI50 with HOP-62, with 786-0, in the assay on MOLT-4, in the assay with OVCAR-3, in the assay with UACC-257 and with UACC-62 was > 100 µM (inactive) each time. Further, the GI50 with SF-295, in the assay with OVCAR-4, in the assay with SK-MEL-28, in the assay on MCF7, in the assay on HL-60 and in the assay with IGROV-1 was > 100 µM (inactive) throughout. Further, the GI50 with SN12C is > 100 µM (inactive).

On to `C#CC[C@@H]1C(=O)N(Cc2ccc(OC)cc2)[C@@H](C(C)C)C(=O)N1Cc1ccc(OC)cc1`, for which the GI50 in the assay with HCT-15 is 40.5 µM; in the assay with A549, 36.1 µM (inactive); in the assay with U-251 it was 39.7 µM (inactive); in the assay with SNB-19, 64.4 µM (inactive); in the assay on HT-29, 26.8 µM (inactive); with OVCAR-5, 67.5 µM (inactive). Besides, the GI50 in the assay with HOP-62 was > 100 µM (inactive); in the assay with 786-0, 44.9 µM (inactive); in the assay on MOLT-4 it was 15.1 µM (inactive); in the assay on OVCAR-3, 51.4 µM (inactive); in the assay on UACC-257, 29.9 µM (inactive); in the assay with UACC-62 it was 25.2 µM (inactive). The GI50 in the assay on SF-295 was 54.2 µM (inactive); in the assay with OVCAR-4, 74 µM (inactive); in the assay on SK-MEL-28, 84.7 µM (inactive); in the assay on MCF7, 19.8 µM (inactive); in the assay with HL-60, 3.66 µM (inactive); in the assay with IGROV-1 it was > 100 µM (inactive). In addition, the GI50 with SN12C was 53 µM (inactive).

Take `Cc1nc2ccc(F)cc2c2c1CCN2c1ccc(Cl)cc1`: the GI50 is 13.1 µM in the assay with HCT-15; 17.2 µM (inactive) with A549; 9.1 µM (inactive) in the assay on U-251; 36.6 µM (inactive) in the assay on SNB-19; 3.61 µM (inactive) in the assay on HT-29; 33.9 µM (inactive) with OVCAR-5. Besides, the GI50 in the assay with HOP-62 was 13.1 µM (inactive); in the assay on 786-0 it was 7.66 µM (inactive); with OVCAR-3, 7.96 µM (inactive); in the assay with UACC-257 it was 3.51 µM (inactive); with UACC-62, 10.9 µM (inactive); in the assay on SF-295, 4.33 µM (inactive). Moreover, the GI50 was 13.4 µM (inactive) with OVCAR-4; 12.2 µM (inactive) in the assay with SK-MEL-28; 11.6 µM (inactive) in the assay on MCF7; 2.01 µM (inactive) in the assay with HL-60; 7.73 µM (inactive) in the assay on IGROV-1; 11.8 µM (inactive) with SN12C.

`CC(=O)Oc1cc2c(c3ncccc13)OC(C)(C)C2`: the GI50 was 11.8 µM in the assay on HCT-15; 1.54 µM (inactive) in the assay with SR; 12.9 µM (inactive) in the assay with A549; 12.4 µM (inactive) in the assay with U-251; 15.7 µM (inactive) with HT-29; 14.8 µM (inactive) in the assay on OVCAR-5. Besides, the GI50 in the assay on HOP-62 was 5.85 µM (inactive); in the assay with 786-0, 14.6 µM (inactive); in the assay with MOLT-4, 12.3 µM (inactive); with OVCAR-3, 11.5 µM (inactive); in the assay on UACC-257 it was 15.5 µM (inactive); with UACC-62 it was > 100 µM (inactive). Moreover, the GI50 with SF-295 was 13 µM (inactive); in the assay with OVCAR-4, 12.1 µM (inactive); with SK-MEL-28, 15.2 µM (inactive); with MCF7, 16.7 µM (inactive); in the assay with IGROV-1 it was 2.29 µM (inactive); with SN12C, 12.2 µM (inactive).

On to `CN(C)c1ccc(/N=N/c2ccccn2)cc1`, for which the GI50 is 25.2 µM in the assay with HCT-15; 19.8 µM (inactive) in the assay on A549; 4.66 µM (inactive) with U-251; 58.6 µM (inactive) in the assay on SNB-19; 11.1 µM (inactive) in the assay on HT-29; > 100 µM (inactive) with OVCAR-5. The GI50 is 71 µM (inactive) with HOP-62; 49 µM (inactive) in the assay on 786-0; 4.17 µM (inactive) with MOLT-4; 4.21 µM (inactive) in the assay on OVCAR-3; 3.89 µM (inactive) with UACC-257; 33.4 µM (inactive) in the assay on UACC-62. The GI50 in the assay with SF-295 was 37 µM (inactive); with OVCAR-4, 36.2 µM (inactive); in the assay on SK-MEL-28, > 100 µM (inactive); in the assay with MCF7, 3.18 µM (inactive); with HL-60, 4.26 µM (inactive); in the assay with IGROV-1, 5.93 µM (inactive). Also, in the assay with SN12C, the GI50 was 41.5 µM (inactive).

With `COC(=O)c1c(C)cccc1/C=C1/Cc2c(C)cccc2C1=O`, the GI50 was greater than 100 µM with HCT-15; > 100 µM (inactive) in the assay with A549; 90.6 µM (inactive) in the assay on U-251; > 100 µM (inactive) in the assay with HT-29; > 100 µM (inactive) with OVCAR-5; > 100 µM (inactive) in the assay with HOP-62. Further, the GI50 in the assay on 786-0 was 88.7 µM (inactive); in the assay with MOLT-4, > 100 µM (inactive); in the assay on OVCAR-3, > 100 µM (inactive); in the assay with UACC-257 it was 3.1 µM (inactive); in the assay with UACC-62 it was > 100 µM (inactive); in the assay on SF-295, > 100 µM (inactive). Besides, the GI50 in the assay on OVCAR-4 is > 100 µM (inactive); in the assay with SK-MEL-28 it was > 100 µM (inactive); in the assay with MCF7, 8.97 µM (inactive); in the assay on HL-60, > 100 µM (inactive); with IGROV-1, > 100 µM (inactive); in the assay with SN12C, > 100 µM (inactive).

As to `CCCOc1ccc2sc(NC(=O)c3cc([N+](=O)[O-])cc([N+](=O)[O-])c3)nc2c1`, the GI50 with HCT-15 is 53.7 µM; in the assay with A549, 24.1 µM (inactive); with U-251, 32.4 µM (inactive); with SNB-19 it was 42.5 µM (inactive); in the assay on HT-29, 69.8 µM (inactive); in the assay on OVCAR-5, > 100 µM (inactive). For the same molecule, the GI50 is 78.9 µM (inactive) with HOP-62; 52.2 µM (inactive) in the assay with 786-0; 36.3 µM (inactive) in the assay with MOLT-4; 26.3 µM (inactive) with OVCAR-3; 25.5 µM (inactive) with UACC-62; 35.6 µM (inactive) in the assay on SF-295. Also, the GI50 was 18.8 µM (inactive) in the assay on OVCAR-4; 50.5 µM (inactive) in the assay on SK-MEL-28; 40.2 µM (inactive) in the assay with MCF7; 67.3 µM (inactive) in the assay on HL-60; 10.6 µM (inactive) in the assay on IGROV-1; 42.1 µM (inactive) in the assay with SN12C.

With `CCOC(=O)/C(C#N)=C/c1ccc2c(-c3c(OCC)ccc4cc(/C=C(\C#N)C(=O)OCC)ccc34)c(OCC)ccc2c1`, the GI50 with HCT-15 was greater than 100 µM; with A549, > 100 µM (inactive); in the assay on U-251 it was > 100 µM (inactive); with SNB-19, > 100 µM (inactive); in the assay with HT-29, > 100 µM (inactive); in the assay with OVCAR-5, > 100 µM (inactive). The GI50 in the assay with HOP-62, with 786-0, in the assay with MOLT-4, in the assay on OVCAR-3, in the assay with UACC-257 and with UACC-62 was > 100 µM (inactive) each time. The GI50 in the assay on SF-295, in the assay with OVCAR-4, in the assay with SK-MEL-28, with MCF7, in the assay with HL-60 and in the assay with IGROV-1 was > 100 µM (inactive) throughout. Moreover, the GI50 in the assay with SN12C is > 100 µM (inactive).

For `COc1ccc(/C(CCl)=C(\Nc2ccccc2)c2ccc(OC)c(OC)c2)cc1OC`, the GI50 was greater than 100 µM with HCT-15; 85.7 µM (inactive) in the assay on A549; > 100 µM (inactive) in the assay on U-251; > 100 µM (inactive) in the assay with SNB-19; > 100 µM (inactive) in the assay with HT-29; > 100 µM (inactive) with OVCAR-5. Besides, the GI50 in the assay with HOP-62 was > 100 µM (inactive); in the assay on 786-0, > 100 µM (inactive); with MOLT-4, 28.6 µM (inactive); with OVCAR-3 it was > 100 µM (inactive); in the assay with UACC-257, > 100 µM (inactive); in the assay with UACC-62 it was > 100 µM (inactive). Besides, the GI50 was 78 µM (inactive) in the assay with SF-295; 75.5 µM (inactive) with OVCAR-4; > 100 µM (inactive) in the assay with SK-MEL-28; > 100 µM (inactive) in the assay with MCF7; 27.2 µM (inactive) with HL-60; > 100 µM (inactive) in the assay with SN12C.

On to `C/C1=C\[C@H](C)C[C@H](C)OC(=O)[C@H](C)NC(=O)[C@@H](Cc2ccc(O)c(Br)c2)N(C)C(=O)[C@H](C)NC(=O)[C@@H](C)C1`, for which the GI50 in the assay on HCT-15 is 0.982 µM; in the assay on A549, 0.0646 µM (active); in the assay with U-251, 0.00991 µM (active); in the assay on SNB-19, 0.184 µM (active); in the assay with HT-29, 0.00783 µM (active); in the assay on OVCAR-5, 10.7 µM (inactive). Further, the GI50 is 0.0139 µM (active) with HOP-62; 0.00752 µM (active) with 786-0; 0.3 µM (active) in the assay with MOLT-4; 0.0179 µM (active) in the assay on OVCAR-3; 0.0927 µM (active) in the assay on UACC-257; 0.146 µM (active) in the assay on UACC-62. Besides, the GI50 was 0.0578 µM (active) in the assay with SF-295; 0.0631 µM (active) in the assay with OVCAR-4; 0.00659 µM (active) in the assay on SK-MEL-28; 0.0479 µM (active) in the assay with MCF7; 0.00447 µM (active) in the assay with HL-60; 0.0152 µM (active) in the assay on IGROV-1. The GI50 with SN12C is 0.401 µM (active).
